# From patent publication US20230405151A1, “USE OF IRAK4 MODULATORS FOR GENE THERAPY” (Genzyme Corporation, priority 2022, published 2023)
# System: phosphorylation of IRAK4 kinase target protein NFkB
# Test: AlphaLISA SureFire Ultra p-NFκB (Ser536) assay after LPS
# Format: cell-based, human
# Conditions: doses 16 nM, 80 nM, 400 nM and 2000 nM; LPS 300 ng/ml
# Protocol: IRAK4 targeting drugs and AAV Treatments. Dendritic cells were plated in 96 well plates with 200,000 cells per well. Each treatment was performed in triplicates. Cells were treated with zimlovisertib IRAK4 inhibitor (Synonyms: PF-06650833) Cat. No.: HY-19836 (MedChemExpress) and PROTAC IRAK4 degrader-1 Cat. No.: HY-129966 (MedChemExpress) at 16 nm, 80 nm, 400 nm and 2000 nm for 18 hrs at 37° C., 5% CO2 in an incubator. After pre-treatment of 18 hrs with the drugs, AAV vectors at 1e5 MOI were used. The cells were incubated at 37° C., 5% CO2 in an incubator for 24 hours. After 24 hours, plates were centrifuged and media supernatant was collected. The clarified media was analyzed by Meso Scale Discovery MSD (world wide web mesoscale.com/products/v-plex-proinflammatory-panel-1-human-kit-k15049d/) performed by DC3 therapeutics https://www.dc3therapeutics.com/services. The experiment outline of PBMC isolation, monocyte purification and dendritic cell differentiation is illustrated in FIG. 1. […]
# AlphaLISA assay. […] Finally, SA-donor beads are added and 30 min later plates are read using EnVision-Alpha Reader (615 nm) https://resources.perkinelmer.com/lab-solutions/resources/docs/MAN_AlphaLISA_IRAK4_AL3117.pdf?_gl=1*7jzf5d*_ga*MzQ4MTQ1NzA3LjE2NDY2NzY5MjI.*_ga_W34ZJ1Z1Q1*MTY3NzE5MjAyOS4zLjEuMTY3NzE5MjA2Mi4yNy4wLjA.&_ga=2.178521252.1409175695.1677192029-348145707.1646676922. […]
smiles,measurement,value
"CC[C@@H]1[C@H](F)C(=O)N[C@@H]1COc1nccc2cc(C(N)=O)c(OC)cc12 [zimlovisertib, 1-[[(2S,3S,4S)-3-Ethyl-4-fluoro-5-oxo-2-pyrrolidinyl]methoxy]-7-methoxy-6-isoquinolinecarboxamide]",Phosphorylation of NFkB induced by LPS,blocks phosphorylation of NFkB at 400 nM and 2000 nM
